Measured values published in patent publication US20040014689A1, “Endoparaciticidal and ectoparasiticidal agents” (priority 1996, published 2004).

Legend:
[1] = tested on: Nematospiroides dubius; experiment: Use Example C: in vivo nematode test, Nematospiroides dubius in mice; settings: oral
Description: Nematospiroides dubius in Mice
Mice were experimentally infected with nematodes of the species Nematospiroides dubius. Specifically, the mice were administered Nematospiroides dubius orally as 60 filariform larvae.
After the prepatency period had expired, the suspended active compounds of Example 2 were administered orally on day 12 after the infection.
(§1) Determination of the Activity:
The mice are selected on day 20 after the infection. The adult parasites in the Duodenum are counted by means of a compressorium. The success of treatment in the dose group is compared to the untreated control group.

[2] = tested on: Heterakis spumosa; experiment: Example D: in vivo nematode test, Heterakis spumosa in mice; settings: oral
Description: Heterakis spumosa in Mice
Mice were experimentally infected with nematodes of the species Heterakis spumosa. Specifically, the mice were administered Heterakis spumosa orally as 90 embryonate eggs.
After the prepatency period had expired, the suspended active compounds of Example 2 were administered orally on day 46 after the infection.
as §1
The mice are selected on day 54 after the infection. The adult parasites are counted in the colon and caecum using a microscope. The success of treatment in the dose group is compared to the untreated control group.

[3] = ivermectin B1a/B1b 0.1 mg/kg alone

Molecule: 22,23-Dihydroavermectin B1a/B1b [Ivermectin B1a/B1b]
- Reduction rate [%] [1, 3]: 0%
- Reduction rate [%] [2, 3]: <50%

Molecule: O=[N+]([O-])NC1=NCCN1Cc1ccc(Cl)nc1 [Imidacloprid, 1-[(6-chloro-3-pyridinyl)methyl]-N-nitro-2-imidazolidinium]
- Reduction rate [%] ([1]; imidacloprid 25.0 mg/kg alone): 0%
- Reduction rate [%] ([1]; imidacloprid 50.0 mg/kg alone): 0%
- Reduction rate [%] ([2]; imidacloprid 5.0 mg/kg alone): 0%
- Reduction rate [%] ([2]; imidacloprid 10.0 mg/kg alone): 0%
- Reduction rate [%] ([2]; imidacloprid 25.0 mg/kg alone): 0%
- Reduction rate [%] ([2]; imidacloprid 50.0 mg/kg alone): 0%
